# Reference: article PMC3855340, “Functional Expression of Human NKCC1 from a Synthetic Cassette-Based cDNA: Introduction of Extracellular Epitope Tags and Removal of Cysteines” (PLoS ONE, 2013)
# Target: T1, hNKCC1 (NT17, 3xFlag-YFP-tagged human NKCC1) (Homo sapiens, UniProt P55011)
# T1 construct: gene SLC12A2; full-length human NKCC1 from synthetic cDNA with 262 silent mutations; N-terminal 3xFlag and YFP (mVenus) tags kept; pcDNA3.1-neo, stably expressed in HEK-293 cells
# T1 sequence (P55011 1-1212): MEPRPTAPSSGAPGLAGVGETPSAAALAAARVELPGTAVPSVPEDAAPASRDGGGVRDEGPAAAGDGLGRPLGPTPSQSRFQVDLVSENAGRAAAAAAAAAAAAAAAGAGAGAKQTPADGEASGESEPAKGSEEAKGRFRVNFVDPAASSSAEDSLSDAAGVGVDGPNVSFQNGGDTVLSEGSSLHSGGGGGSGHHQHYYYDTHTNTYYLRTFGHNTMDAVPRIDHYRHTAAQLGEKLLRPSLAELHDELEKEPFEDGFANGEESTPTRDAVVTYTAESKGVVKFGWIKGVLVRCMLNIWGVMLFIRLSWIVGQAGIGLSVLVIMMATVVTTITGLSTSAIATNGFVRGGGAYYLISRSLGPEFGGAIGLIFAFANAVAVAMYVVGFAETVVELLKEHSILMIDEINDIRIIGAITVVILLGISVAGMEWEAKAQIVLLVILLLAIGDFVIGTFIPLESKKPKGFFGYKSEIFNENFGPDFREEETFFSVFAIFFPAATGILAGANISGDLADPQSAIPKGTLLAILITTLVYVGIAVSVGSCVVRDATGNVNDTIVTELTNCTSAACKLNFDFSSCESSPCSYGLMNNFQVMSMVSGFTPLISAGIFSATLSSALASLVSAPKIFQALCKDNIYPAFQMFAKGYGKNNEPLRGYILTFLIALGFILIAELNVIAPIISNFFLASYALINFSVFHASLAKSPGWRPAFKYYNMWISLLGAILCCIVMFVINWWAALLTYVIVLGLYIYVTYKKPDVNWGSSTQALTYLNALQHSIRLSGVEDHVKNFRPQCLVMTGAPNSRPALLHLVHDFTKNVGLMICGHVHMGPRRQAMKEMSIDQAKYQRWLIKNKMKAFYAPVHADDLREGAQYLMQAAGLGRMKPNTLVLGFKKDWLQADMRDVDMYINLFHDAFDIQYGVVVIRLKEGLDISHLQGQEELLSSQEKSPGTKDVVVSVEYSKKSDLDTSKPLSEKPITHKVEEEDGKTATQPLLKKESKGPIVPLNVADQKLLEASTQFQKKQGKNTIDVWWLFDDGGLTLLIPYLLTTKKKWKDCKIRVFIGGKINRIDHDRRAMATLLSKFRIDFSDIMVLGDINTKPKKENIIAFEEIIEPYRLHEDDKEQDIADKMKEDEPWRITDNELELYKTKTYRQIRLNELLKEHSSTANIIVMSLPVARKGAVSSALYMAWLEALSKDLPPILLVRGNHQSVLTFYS
# Test: influx inhibition in transfected HEK-293 cells, single-site fit
# Assay type: cell-based
# Conditions: read-out: Ki (bumet)
smiles,measurement,value
CCCCNc1cc(C(=O)O)cc(S(N)(=O)=O)c1Oc1ccccc1 [bumetanide],Ki,460 ± 100 nM
